This assay in a line: Inhibition of [35S]GTP-gamma-S, binding in guinea pig caudate stimulated by SNC80 (Opioid receptor delta 1). In general terms: Binding of GTPγS marks nucleotide exchange on a G protein.

The values that follow come from BindingDB's records for doi:10.1021/jm980290i (Research Triangle Institute, 1998).

What is called Ki is a dissociation constant, usually derived from enzyme kinetics or from competition with a known ligand. Higher therefore signals weaker binding.

For the compound `C[C@H]1C2CCCC1(c1cccc(O)c1)CCN2CCc1ccccc1` (stereo partly drawn) [3-((R)-9-Methyl-2-phenethyl-2-aza-bicyclo[3.3.1]non-5-yl)-phenol], the Ki was 13 nM.
